Experimental data: patent publication US12649750B2, “Macrocyclic compounds, compositions, and methods of using thereof” (Sionna Therapeutics Inc., priority 2022, dated 2026)

Assays:
[1] = biological target: T1, NBD1 (Homo sapiens, UniProt P13569); assay: Aggregation analysis using differential static light scattering (DSLS), thermal stability of NBD1 (ΔTagg); format: binding; settings: ΔTagg versus DMSO control, NBD1 0.2 mg/ml
T1 construct: Purified recombinant NBD1 was produced using previously described methods; made in house
Summary of the method: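 Thermal aggregation of purified NBD1 was followed by static light scattering during a 1° C./min ramp to 70° C. Protein was at 0.2 mg/ml with 2 mM ATP at pH7.6. Each compound's Tagg was referenced to DMSO controls.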

[2] = biological target: T2, CFTR (Homo sapiens, UniProt P13569, DEL508-508); assay: TECC24 AUC fold over DMSO @10 μM, CFTR-mediated transepithelial chloride transport in CF-HBE cells; format: cell-based; settings: test agent AUC divided by DMSO vehicle AUC, primary CF-HBE cells, ΔF508 homozygous donor, 48 hours incubation
T2 construct: Primary human bronchial epithelial cells from a ΔF508 homozygous CF donor; host or cells: primary human bronchial epithelial cells (CF-HBE), ΔF508 homozygous donor
Summary of the method: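 Primary ΔF508-homozygous CF bronchial epithelial cells on inserts were incubated 48 h at 36.5 °C with compound in IL-13-containing medium. VT and TEER were then recorded in current-clamp mode (pH 7.4 HEPES bath) with benzamil 10 μM, forskolin 10 μM, then CFTR inhibitor-172 20 μM. The IEQ AUC between forskolin and inhibitor was divided by vehicle AUC.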

T2 sequence (P13569 with tags, fused parts or gaps DEL508-508): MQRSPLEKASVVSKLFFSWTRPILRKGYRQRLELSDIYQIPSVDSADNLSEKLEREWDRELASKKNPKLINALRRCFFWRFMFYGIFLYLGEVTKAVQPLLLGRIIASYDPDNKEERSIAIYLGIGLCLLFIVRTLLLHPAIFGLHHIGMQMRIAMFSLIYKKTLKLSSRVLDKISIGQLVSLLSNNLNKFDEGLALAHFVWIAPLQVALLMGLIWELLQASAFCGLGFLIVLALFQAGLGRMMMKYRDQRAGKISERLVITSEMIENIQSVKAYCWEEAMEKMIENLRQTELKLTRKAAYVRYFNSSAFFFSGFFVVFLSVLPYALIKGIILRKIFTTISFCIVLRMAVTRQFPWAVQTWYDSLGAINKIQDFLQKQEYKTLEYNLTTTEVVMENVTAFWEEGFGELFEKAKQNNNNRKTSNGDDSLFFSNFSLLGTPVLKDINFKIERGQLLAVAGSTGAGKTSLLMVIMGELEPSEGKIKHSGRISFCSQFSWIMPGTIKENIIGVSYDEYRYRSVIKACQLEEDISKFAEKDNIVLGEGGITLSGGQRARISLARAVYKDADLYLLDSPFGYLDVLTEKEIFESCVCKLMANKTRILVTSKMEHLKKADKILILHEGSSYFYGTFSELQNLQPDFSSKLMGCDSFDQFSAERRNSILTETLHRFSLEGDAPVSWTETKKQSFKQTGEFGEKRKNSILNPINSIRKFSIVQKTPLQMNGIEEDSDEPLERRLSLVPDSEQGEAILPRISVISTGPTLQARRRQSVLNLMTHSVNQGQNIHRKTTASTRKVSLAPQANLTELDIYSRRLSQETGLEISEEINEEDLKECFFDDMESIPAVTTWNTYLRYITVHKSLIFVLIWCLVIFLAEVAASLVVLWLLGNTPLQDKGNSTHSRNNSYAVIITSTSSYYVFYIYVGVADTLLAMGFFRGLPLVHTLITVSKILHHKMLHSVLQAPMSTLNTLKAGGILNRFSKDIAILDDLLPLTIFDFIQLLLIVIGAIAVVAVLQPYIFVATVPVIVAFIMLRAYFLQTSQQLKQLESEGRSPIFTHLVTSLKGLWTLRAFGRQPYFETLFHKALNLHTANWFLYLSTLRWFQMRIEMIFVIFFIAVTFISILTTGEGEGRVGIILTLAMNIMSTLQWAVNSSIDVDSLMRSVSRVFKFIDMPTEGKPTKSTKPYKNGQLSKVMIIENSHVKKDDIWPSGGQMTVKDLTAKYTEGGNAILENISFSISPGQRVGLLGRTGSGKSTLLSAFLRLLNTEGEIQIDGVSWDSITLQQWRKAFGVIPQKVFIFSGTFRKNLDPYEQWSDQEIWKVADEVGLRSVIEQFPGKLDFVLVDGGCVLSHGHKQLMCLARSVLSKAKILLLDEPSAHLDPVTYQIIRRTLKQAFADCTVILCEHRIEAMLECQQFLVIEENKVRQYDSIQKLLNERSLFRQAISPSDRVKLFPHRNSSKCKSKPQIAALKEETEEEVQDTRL
T1 sequence (P13569 423-646 limits assumed): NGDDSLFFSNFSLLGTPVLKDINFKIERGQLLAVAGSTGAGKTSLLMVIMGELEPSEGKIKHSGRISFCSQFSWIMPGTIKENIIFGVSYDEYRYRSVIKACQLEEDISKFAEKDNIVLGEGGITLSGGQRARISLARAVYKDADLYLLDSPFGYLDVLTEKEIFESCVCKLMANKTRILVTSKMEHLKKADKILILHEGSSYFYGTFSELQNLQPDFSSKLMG

Row | Compound | DSLS 3D (100 μM ΔT) [1] | TECC (AUC, 10 μM) [2]
1 | Cn1nc2nc1-c1cc(ccc1F)Oc1c(F)cc3[nH]ccc3c1CCS(=O)(=O)CC(C)(C)CCCC2(C)c1cccc(/C=C2\CCOC2=O)c1 (centres unmarked) [Compound 172, (3E)-3-[[3-(22,28-Difluoro-3,6,10,10-tetramethyl-12,12-dioxo-24-oxa-12λ6-thia-3,4,19,30-tetrazapentacyclo[23.3.1.12,5.015,23.016,20]triaconta-1(29),2(30),4,15,17,20,22,25,27-nonaen-6-yl)phenyl]methylene]tetrahydrofuran-2-one] | B (a value above 5 °C and less than or equal to 10 °C is marked “B”) | A (a TECC value less than 12 is marked “A”)
2 | Cn1nc2nc1-c1cc(ccc1F)Oc1c(F)cc3[nH]ccc3c1CCS(=O)(=O)CC(C)(C)CCCC2(C)c1cccc(CC2CCOC2=O)c1 (centres unmarked) [Compound 173, 3-[[3-(22,28-Difluoro-3,6,10,10-tetramethyl-12,12-dioxo-24-oxa-12λ6-thia-3,4,19,30-tetrazapentacyclo[23.3.1.12,5.015,23.016,20]triaconta-1(29),2(30),4,15,17,20,22,25,27-nonaen-6-yl)phenyl]methyl]tetrahydrofuran-2-one] | B (a value above 5 °C and less than or equal to 10 °C is marked “B”) | C (a value between 20 and 80 is marked “C”)
3 | Cn1nc2nc1-c1cc(ccc1F)Oc1c(F)cc3[nH]ccc3c1CCS(=O)(=O)CC(C)(C)CCCC2(C)c1cccc(CC2NC(=O)NC2=O)c1 (centres unmarked) [Compound 175, 5-[[3-(22,28-Difluoro-3,6,10,10-tetramethyl-12,12-dioxo-24-oxa-12λ6-thia-3,4,19,30-tetrazapentacyclo[23.3.1.12,5.015,23.016,20]triaconta-1(29),2(30),4,15,17,20,22,25,27-nonaen-6-yl)phenyl]methyl]imidazolidine-2,4-dione] | C (a value greater than 10 °C and less than or equal to 25 °C is marked “C”) | A (a TECC value less than 12 is marked “A”)
4 | Cn1nc2nc1-c1cc(ccc1F)Oc1c(F)cc3[nH]ccc3c1CCS(=O)(=O)CC(C)(C)CCCC2(C)c1cccc(C(O)C2NC(=O)NC2=O)c1 (centres unmarked) [Compound 176, 5-[[3-(22,28-Difluoro-3,6,10,10-tetramethyl-12,12-dioxo-24-oxa-12λ6-thia-3,4,19,30-tetrazapentacyclo[23.3.1.12,5.015,23.016,20]triaconta-1(29),2(30),4,15,17,20,22,25,27-nonaen-6-yl)phenyl]-hydroxy-methyl]imidazolidine-2,4-dione] | C (a value greater than 10 °C and less than or equal to 25 °C is marked “C”) | B (a value between 12-20 is marked “B”)
5 | CCOC(=O)CC(O)c1cccc(C2(C)CCCC(C)(C)CS(=O)(=O)CCc3c(c(F)cc4[nH]ccc34)Oc3ccc(F)c(c3)-c3nc2nn3C)c1 (centres unmarked) [Compound 177, Ethyl 3-[3-(22,28-difluoro-3,6,10,10-tetramethyl-12,12-dioxo-24-oxa-12λ6-thia-3,4,19,30-tetrazapentacyclo[23.3.1.12,5.015,23.016,20]-triaconta-1(29),2(30),4,15,17,20,22,25,27-nonaen-6-yl)phenyl]-3-hydroxy-propanoate] | B (a value above 5 °C and less than or equal to 10 °C is marked “B”) | C (a value between 20 and 80 is marked “C”)
6 | Cn1nc2nc1-c1cc(ccc1F)Oc1c(F)cc3[nH]ccc3c1CCS(=O)(=O)CC(C)(C)CCCC2(C)c1cccc(C(O)CC(=O)O)c1 (centres unmarked) [Compound 178, 3-[3-(22,28-Difluoro-3,6,10,10-tetramethyl-12,12-dioxo-24-oxa-12λ6-thia-3,4,19,30-tetrazapentacyclo[23.3.1.12,5.015,23.016,20]triaconta-1(29),2(30),4,15,17,20,22,25,27-nonaen-6-yl)phenyl]-3-hydroxy-propanoic Acid] | C (a value greater than 10 °C and less than or equal to 25 °C is marked “C”) | C (a value between 20 and 80 is marked “C”)
7 | C[C@H](Cc1cccc([C@@]2(C)CCCC(C)(C)CS(=O)(=O)CCc3c(ccc4[nH]ccc34)Oc3ccc(F)c(c3)-c3nc2nn3C)c1)C(=O)O [Compound 190, (2R)-3-[3-[(6R)-28-fluoro-3,6,10,10-tetramethyl-12,12-dioxo-24-oxa-12λ6-thia-3,4,19,30-tetrazapentacyclo[23.3.1.12,5.015,23.016,20]triaconta-1(29),2(30),4,15,17,20,22,25,27-nonaen-6-yl]phenyl]-2-methyl-propanoic Acid] | C (a value greater than 10 °C and less than or equal to 25 °C is marked “C”) | B (a value between 12-20 is marked “B”)
8 | C[C@@H](Cc1cccc([C@@]2(C)CCCC(C)(C)CS(=O)(=O)CCc3c(c(F)cc4[nH]ccc34)Oc3ccc(F)c(c3)-c3csc2n3)c1)C(=O)O [Compound 191, (2S)-3-[3-[(6R)-22,28-Difluoro-6,10,10-trimethyl-12,12-dioxo-24-oxa-4,12λ6-dithia-19,30-diazapentacyclo[23.3.1.12,5.015,23.016,20]triaconta-1(29),2,5(30),15,17,20,22,25,27-nonaen-6-yl]phenyl]-2-methyl-propanoic Acid] | C (a value greater than 10 °C and less than or equal to 25 °C is marked “C”) | B (a value between 12-20 is marked “B”)
9 | C[C@@H](Cc1cccc([C@@]2(C)CCCC(C)(C)CS(=O)(=O)CCc3c(c(F)cc4[nH]ccc34)Oc3ccc(F)c(c3)-c3coc2n3)c1)C(=O)O [Compound 192, (2S)-3-[3-[(6R)-22,28-difluoro-6,10,10-trimethyl-12,12-dioxo-4,24-dioxa-12λ6-thia-19,30-diazapentacyclo[23.3.1.12,5.015,23.016,20]triaconta-1(29),2,5(30),15,17,20,22,25,27-nonaen-6-yl]phenyl]-2-methyl-propanoic Acid] | C (a value greater than 10 °C and less than or equal to 25 °C is marked “C”) | C (a value between 20 and 80 is marked “C”)
10 | COC(=O)[C@H](C)Cc1csc(C2(C)CCCC(C)(C)CS(=O)(=O)CCc3c(c(F)cc4[nH]ccc34)Oc3ccc(F)c(c3)-c3nc2nn3C)c1 (stereo partly drawn) [Compound 193, Methyl (2R)-3-[5-(22,28-difluoro-3,6,10,10-tetramethyl-12,12-dioxo-24-oxa-12λ6-thia-3,4,19,30-tetrazapentacyclo[23.3.1.12,5.015,23.016,20]triaconta-1(29),2(30),4,15,17,20,22,25,27-nonaen-6-yl)-3-thienyl]-2-methyl-propanoate] | B (a value above 5 °C and less than or equal to 10 °C is marked “B”) | C (a value between 20 and 80 is marked “C”)
